Results published in PMC9585585, “Discovery of Small-Molecule Allosteric Inhibitors of PfATC as Antimalarials” (Journal of the American Chemical Society, 2022).
“And” between values parts separate entries of the source, which are not always exact repeats. Identical values can stand only once. Like-named read-outs stand apart in the source and are kept apart here.

What was measured:
PfATC [1] = biological target: T1, PfATC (Plasmodium falciparum, UniProt A0A5K1K910); test: biochemical; conditions: for IC50: in vitro activity assay, PfATC 50 nM, 2 mM CP, 1 mM aspartate, read-out: PfATC IC50
T1 sequence (A0A5K1K910 entry or part of it): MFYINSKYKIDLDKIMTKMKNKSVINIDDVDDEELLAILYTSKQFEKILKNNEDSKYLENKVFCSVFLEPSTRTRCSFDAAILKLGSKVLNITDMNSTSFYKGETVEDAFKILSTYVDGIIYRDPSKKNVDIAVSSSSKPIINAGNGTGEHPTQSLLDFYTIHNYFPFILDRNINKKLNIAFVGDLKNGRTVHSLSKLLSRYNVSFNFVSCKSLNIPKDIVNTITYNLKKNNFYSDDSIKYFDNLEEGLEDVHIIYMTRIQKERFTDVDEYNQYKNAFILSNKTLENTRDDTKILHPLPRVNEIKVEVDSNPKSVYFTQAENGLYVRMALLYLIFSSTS
Experimental: Following washing with Lysis buffer
Excess imidazole was removed and the His-tag was cleaved
400Then, the sample was loaded onto a 5 ml HiTrap SP HP column (GE Healthcare, USA) and
410PfATC activity assay. Enzymatic reactions were performed in a total volume of 150 µL in 50 mM
Small-molecule dose-response curves were
The reactions were initiated by adding CP and quenched after 10 min with
After plates were sealed with transparent sealing
(§1) 420tape to prevent evaporation and incubated overnight in the dark place at room temperature. After
Analyses were performed using
The enzymatic assay was performed as described herein above for
Briefly, the reaction was carried out at room
The reaction was initiated by
Then the plate was covered by sealing
(§2) 430tape and kept in dark place at room temperature and then heated to 95 °C for 15min in dark and kept

HsATC = biological target: T2, HsATC (Homo sapiens, UniProt P27708); test: HsATC activity assay; format: biochemical; conditions: in vitro activity assay
T2 construct: ATCase domain of CAD; made in house; host or cells: E. coli BL21 star
T2 sequence (P27708 1918-2225 limits assumed): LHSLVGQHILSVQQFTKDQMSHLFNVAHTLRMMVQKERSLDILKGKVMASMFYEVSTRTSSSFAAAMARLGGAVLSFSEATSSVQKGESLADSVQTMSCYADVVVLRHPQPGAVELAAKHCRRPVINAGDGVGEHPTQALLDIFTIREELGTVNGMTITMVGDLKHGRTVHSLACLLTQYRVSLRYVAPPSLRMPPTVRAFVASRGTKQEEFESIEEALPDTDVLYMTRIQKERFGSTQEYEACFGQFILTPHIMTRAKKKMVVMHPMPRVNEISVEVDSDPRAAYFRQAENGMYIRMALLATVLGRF
Experimental: 417100μL of stop mix (two volumes of Antipyrine (26.5 mM 2,3-Dimethyl-1-phenyl-3-pyrazolin-5-
418one in 50% (v/v) sulfuric acid) and one volume of 2,3-Butanedione monoxime (80 mM 2,3-
419Butanedione monoxime in 5% (v/v) acetic acid). After plates were sealed with transparent sealing
as §1
421incubation, the plates were heated at 95 °C for 15 min in dark place, and kept for 30 min before
422measuring at 466 nm suing a Synergy H1 Hybrid Reader (BioTek). Analyses were performed using
423Microsoft Excel and Graph Pad Prism.
424HsATC activity assay. The enzymatic assay was performed as described herein above for
425enzymatic assay of PfATC with minor modifications. Briefly, the reaction was carried out at room
426temperature in a total volume of 150 μl of 10 mM L-aspartate and 5 mM carbamoyl phosphate
427saturated substrate solution in 50 mM Tris-Acetate buffer pH 8.3. hsATC was pre-incubated with
428inhibitor and L-Asp for 10 min at room temperature on a shaker. The reaction was initiated by
429adding CP and stopped after 5 min with […] color mix. Then the plate was covered by sealing
as §2
431the plate in the dark for another 30 min before measuring the absorbance at 466 nm suing a Synergy
432H1 Hybrid Reader (BioTek). […]

PfATC [2] = biological target: T1, PfATC; test: Differential scanning fluorimetry (DSF); format: binding; conditions: PfATC 5 µM, read-out: ΔTM of PfATC (thermal stabilization)
Text: (§3) 464Data collection, processing and refinement. All the diffraction data sets were collected using
(§4) 465synchrotron radiation wavelength 1.033200 Å at DESY beamline P11. The data collected for
(§5) 466PfATC crystals grown in presence of fragments and compounds were processed using XDSAPP 25
(§6) 467and Aimless 26, and the structures were solved and initially refined using the DIMPLE pipeline
(§7) 468within CCP4 suite 26 with coordinates of the unliganded PfATC (5ILQ) as a starting model. The
(§8) 469final refinement included manual rebuilding in coot 27 and Refmac5 28. The resulting crystal
(§9) 470structures were deposited in PDB 29. Data collection and processing statistics are show in Table
(§10) 472Differential Scanning Fluorimetry (DSF). The purified PfATC was incubate with 5000 × Sypro
(§11) 473Orange (Invitrogen) and dilution it to 1:400 stock of dye in assay buffer (50 mM Tris-HCl pH =8.0
(§12) 474and 300 mM NaCl). Each reaction consisted of 2 µL compound (10 mM stock in 100% DMSO), 5
(§13) 475µL PfATC-Sypro orange mixture and 43 µL assay buffer. Final protein assay concentration was
(§14) 4765µM, final DMSO concentration war […]. After incubation for 20 min at 20 ℃, the samples
(§15) 477were hated from 25℃ to 95℃ at a rate of 0.5 ℃ min -1. The inflection points of the melting curves
(§16) 478were determined using BioRad CSV 96 control software and processed & plotted by GraphPad.
(§17) 479Microscale Thermophoresis (MST). […]

PfATC [3] = biological target: T1, PfATC; test: Microscale thermophoresis (MST); format: binding; conditions: n = 3
Text: as §3, §4, §5, §6, §7, §8, §9, §10, §11, §12, §13, §14, §15, §16, §17

HepG2 cells = test: Cytotoxicity on cultured human HepG2 cells; format: cell-based; conditions: at a concentration of 100 μM
[4] = Insolubility interpreted from deviation of the MST curve; format: physicochemical; conditions: pH 8, aqueous with cosolvent or surfactant or cyclodextrin, kinetic from dmso stock, MST buffer, read-out: concentration in excess of which the compound is insoluble
Experimental: We also modified the amino group and generated a new scaffold, suspecting that varying the R1, R2, and R3 groups would generate a series of compounds with optimized binding and improved inhibition (BDAs, Supporting Information Table 1). We evaluated the BDA series in an in vitro activity assay against malarial and human ATC (Figure 3A, Supporting Information Table 1). […] Significant deviations from the sigmoidal distribution of the MST curve are present at concentrations higher than 10 μM, which we have interpreted as indicative of BDA-04 insolubility at concentration in excess of 10 μM. To characterize the mechanism of inhibition by BDAs, enzyme activity assays were performed using BDA-04 as an exemplar (Figure 3F,G).
as §3, §4, §5, §6, §7
469final refinement included manual rebuilding in coot 27 and Refmac5 28. The resulting crystal […]
478were determined using BioRad CSV 96 control software and processed & plotted by GraphPad. […]

[5] = 10 mM L-aspartate, 5 mM carbamoyl phosphate, read-out: HsATC IC50

Row | Structure (SMILES) | IC50 (PfATC [1]) | IC50 (HsATC; [5]) | mechanism of inhibition (PfATC [1]; with CP and Asp, 0, 200 and 400 nM BDA-04, one substrate fixed (2 mM CP or 1 mM Asp)) | IC50 (HsATC; n = 3, read-out: IC50 against HsATC) | ΔTm (PfATC [2]) | Kd (PfATC [3]) | cytotoxic effect on cultured human HepG2 cells (HepG2 cells) | solubility at 10 min [4]
1 | CC(C)(C)OC(=O)Nc1sc(-c2ccccc2)cc1C(=O)NCCc1ccc(O)cc1 [BDA-11] | 0.0456 µM and 0.046 µM and 0.0457 µM | 0.116 µM | – | – | – | – | – | –
2 | CC(C)(C)OC(=O)Nc1sc(-c2ccccc2)cc1C(=O)NCCO [BDA-14] | 0.115 µM and 0.114 µM | 0.137 µM | – | – | – | – | – | –
3 | CC(C)(C)OC(=O)Nc1sc(-c2ccccc2)cc1C(=O)NCCc1ccccc1 [BDA-04] | 0.0772 µM | 2.84 µM | noncompetitive inhibitor | 2.8 µM and 2.84 µM | 22.8 °C | 0.0663 µM | no cytotoxic effect | > 10 µM
4 | COc1cccc(CCNC(=O)c2cc(-c3ccccc3)sc2NC(=O)OC(C)(C)C)c1 [BDA-24] | 0.103 µM | 0.316 µM | – | – | – | – | – | –
